Among the test systems are 786-0; HCT-116; HOP-92; IGROV-1; LOX IMVI; MOLT-4; NCI-H23; NCI-H460; RPMI-8226; SNB-19; SW-620; U-251; NCI-H226; SF-268; UACC-257.
Assay in all cases: NCI tumour cell line growth inhibition, 48 h

The record followed here is ChEMBL document CHEMBL1201862, “PubChem BioAssay data set” (2004).

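Where inhibition never reached the appropriate level, the endpoint shown equals the highest concentration tested. Otherwise, values were interpolated linearly from a five-concentration, 48-hour dose response in 96-well plates. Here, GI50 denotes the concentration required for 50% inhibition of growth.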 Calls of active or inactive are those of the source. Cut-off read from the data, not from the text of the source: active = GI50 up to about 1.1 µM and inactive = higher.

For the molecule `C/C(=N\N=C(\N)S)c1ccc(Oc2ccccc2)cc1`, the GI50 is 4.05 µM (inactive) in the assay with 786-0; 10.2 µM (inactive) in the assay on HCT-116; 3.65 µM (inactive) in the assay with HOP-92; 2.59 µM (inactive) in the assay with IGROV-1; 13.5 µM (inactive) in the assay with LOX IMVI; 0.971 µM (active) in the assay with MOLT-4. Also, the GI50 was 11.8 µM (inactive) in the assay with NCI-H23; 17.3 µM (inactive) in the assay with NCI-H460; 1.78 µM (inactive) in the assay on RPMI-8226; 16 µM (inactive) in the assay on SNB-19; 16.3 µM (inactive) in the assay with SW-620; 15.4 µM (inactive) in the assay with U-251.
Consider `O=C(C#Cc1ccccc1)Nc1ccccc1CC(c1c[nH]c2ccccc12)c1c[nH]c2ccccc12`, for which the GI50 in the assay on 786-0 is 9.53 µM (inactive); with IGROV-1 it was 16.3 µM (inactive); in the assay with LOX IMVI, 7.43 µM (inactive); in the assay on MOLT-4, 3.33 µM (inactive); in the assay on NCI-H226, 16.6 µM (inactive); in the assay with NCI-H23, 15.4 µM (inactive). Moreover, the GI50 in the assay on RPMI-8226 was 3.52 µM (inactive); in the assay on SF-268 it was 25.4 µM (inactive); in the assay on SNB-19, 26 µM (inactive); in the assay on SW-620, 12.1 µM (inactive); with UACC-257 it was 23.8 µM (inactive).
On to `O=C1c2cccc3cc([N+](=O)[O-])cc(c23)C(=O)N1CCCN1CCN(CCCN2C(=O)c3cccc4cc([N+](=O)[O-])cc(c34)C2=O)CC1`, for which the GI50 with 786-0 was 0.0594 µM (active); with HCT-116, < 0.01 µM (active); with HOP-92, 0.237 µM (active); with IGROV-1 it was 0.0628 µM (active); with LOX IMVI, 0.0234 µM (active); with MOLT-4 it was 0.027 µM (active). Besides, the GI50 was 0.0702 µM (active) in the assay on NCI-H226; 0.859 µM (active) in the assay on NCI-H23; 0.0142 µM (active) in the assay on NCI-H460; 0.0887 µM (active) with RPMI-8226; 0.122 µM (active) in the assay with SNB-19; 0.0284 µM (active) in the assay on SW-620. Also, the GI50 in the assay on U-251 is 0.0248 µM (active); with UACC-257, 0.585 µM (active).
As for `O=C1CCC(=O)C12CCc1cccc(O)c12`, the GI50 with 786-0, in the assay with HOP-92, in the assay on IGROV-1, in the assay on LOX IMVI, with NCI-H23 and in the assay on NCI-H460 was > 100 µM (inactive) throughout. Moreover, the GI50 in the assay with RPMI-8226, in the assay with SF-268, in the assay with SW-620 and with U-251 was > 100 µM (inactive) throughout.
Regarding `CC1CN1P1(N2CC2C)=NP(N2CC2C)(N2CC2C)=NP(N2CC2C)(N2CC2C)=N1` (configuration not stated), the GI50 in the assay on 786-0, in the assay with HCT-116, with HOP-92, in the assay on IGROV-1, with MOLT-4 and in the assay with NCI-H226 was > 50 µM (inactive) each time. Besides, the GI50 with NCI-H23, in the assay with NCI-H460, in the assay with RPMI-8226, in the assay on SF-268, in the assay with SNB-19 and with SW-620 was > 50 µM (inactive) in each case. For the same molecule, in the assay on U-251, the GI50 was > 50 µM (inactive).
As for `COc1ccc(OC)c(NC(=O)C2=C(C)NC(C)=C(C(=O)Nc3cc(OC)ccc3OC)C2c2ccco2)c1`, the GI50 was > 100 µM (inactive) with 786-0; > 100 µM (inactive) in the assay on HCT-116; > 100 µM (inactive) with HOP-92; > 100 µM (inactive) in the assay on IGROV-1; 27.7 µM (inactive) in the assay with MOLT-4; > 100 µM (inactive) in the assay on NCI-H226. In addition, the GI50 with NCI-H23 was > 100 µM (inactive); in the assay with NCI-H460, > 100 µM (inactive); with RPMI-8226, 63 µM (inactive); in the assay with SF-268, > 100 µM (inactive); in the assay with SNB-19, > 100 µM (inactive); in the assay with SW-620, > 100 µM (inactive). For the same molecule, the GI50 in the assay with U-251 is > 100 µM (inactive).
With `CC12OC(=O)C(C#N)C1(C)C1C(=O)CCCC12` (configuration not stated), the GI50 in the assay with 786-0, in the assay on HCT-116, with IGROV-1, with LOX IMVI, with MOLT-4 and in the assay on NCI-H226 was > 100 µM (inactive) in each case. Besides, the GI50 in the assay with NCI-H23, with NCI-H460, in the assay on RPMI-8226, in the assay with SF-268, in the assay with SNB-19 and in the assay with SW-620 was > 100 µM (inactive) in each case. Besides, the GI50 with U-251 is > 100 µM (inactive).
As to `COc1ccc(OC)c(/C=C2\CCc3ccccc3C2=O)c1`, the GI50 was 3.03 µM (inactive) in the assay on 786-0; 6.78 µM (inactive) in the assay with HCT-116; 1.23 µM (inactive) in the assay with HOP-92; 11.4 µM (inactive) in the assay with IGROV-1; 4.26 µM (inactive) with LOX IMVI; 2.59 µM (inactive) with MOLT-4. The GI50 with NCI-H226 is 3.72 µM (inactive); in the assay on NCI-H23, 3.39 µM (inactive); with NCI-H460, 3.44 µM (inactive); in the assay on RPMI-8226, 3.6 µM (inactive); in the assay on SF-268 it was 4.84 µM (inactive); with SNB-19 it was 5.6 µM (inactive). Further, the GI50 in the assay with SW-620 is 1.12 µM (active); in the assay with U-251, 3.3 µM (inactive).
Take `COC(=O)C(=O)C(C#N)c1cccc(Cl)c1` (configuration not stated): the GI50 with 786-0, in the assay on HCT-116, with IGROV-1, in the assay with LOX IMVI, in the assay on MOLT-4 and in the assay with NCI-H226 was > 100 µM (inactive) in each case. Also, the GI50 in the assay with NCI-H23, in the assay with NCI-H460, in the assay with RPMI-8226, in the assay with SF-268, with SNB-19 and in the assay with SW-620 was > 100 µM (inactive) throughout. Also, the GI50 in the assay on U-251 and in the assay on UACC-257 was > 100 µM (inactive) in each case.
In the case of `CCOC(=O)c1c[nH]c2c(ccc3ncccc32)c1=O`, the GI50 with 786-0, with HCT-116, with IGROV-1, in the assay on LOX IMVI, with MOLT-4 and with NCI-H23 was > 100 µM (inactive) throughout. For the same molecule, the GI50 with NCI-H460, with SF-268, with SNB-19, in the assay with SW-620, in the assay on U-251 and with UACC-257 was > 100 µM (inactive) throughout.
With `COc1ccc(/C(Cl)=C/c2cc(OC)ccc2OC)cc1`, the GI50 with 786-0 was 81.8 µM (inactive); in the assay on HCT-116, 48.8 µM (inactive); in the assay on HOP-92, 40.8 µM (inactive); with IGROV-1, > 100 µM (inactive); in the assay with MOLT-4 it was 49.9 µM (inactive); in the assay with NCI-H226, 44.7 µM (inactive). The GI50 in the assay on NCI-H23 is 53 µM (inactive); in the assay with RPMI-8226, 34.2 µM (inactive); in the assay on SF-268 it was 58.2 µM (inactive); in the assay on SNB-19 it was > 100 µM (inactive); in the assay on SW-620, 48.1 µM (inactive); with U-251 it was 84.7 µM (inactive). Also, the GI50 with UACC-257 was > 100 µM (inactive).
Regarding `CCN(CC)c1ccc(C2N3CCCCC3[C@@H]3c4[nH]c5ccccc5c4CCN23)cc1` (some centres not stated), the GI50 in the assay with 786-0 was 37.8 µM (inactive); in the assay on HCT-116 it was 16.1 µM (inactive); in the assay on HOP-92, 38.1 µM (inactive); in the assay with IGROV-1, 42.8 µM (inactive); with MOLT-4 it was 25.5 µM (inactive); with NCI-H23, 34.9 µM (inactive). Besides, the GI50 is 22.3 µM (inactive) in the assay on NCI-H460; 12.8 µM (inactive) in the assay on RPMI-8226; 22.1 µM (inactive) in the assay on SF-268; 32.5 µM (inactive) in the assay with SNB-19; 33.5 µM (inactive) with SW-620; 29.6 µM (inactive) in the assay on U-251. Further, the GI50 in the assay with UACC-257 is 27.7 µM (inactive).
In the case of `CN(C)c1nc(N(C)C)nc(N(C)CN(C)c2nc(N(C)C)nc(N(C)C)n2)n1`, the GI50 with 786-0 is 14.9 µM (inactive); in the assay on HCT-116, > 100 µM (inactive); in the assay on HOP-92 it was > 100 µM (inactive); in the assay with IGROV-1, > 100 µM (inactive); in the assay on LOX IMVI, > 100 µM (inactive); in the assay with MOLT-4, > 100 µM (inactive). For the same molecule, the GI50 in the assay on NCI-H23, in the assay on NCI-H460, with RPMI-8226, with SF-268, in the assay on SNB-19 and in the assay on SW-620 was > 100 µM (inactive) each time. For the same molecule, the GI50 in the assay on U-251 and in the assay on UACC-257 was > 100 µM (inactive) throughout.
For the molecule `O[C@]12CCCC[C@H]1CCC2`, the GI50 with 786-0, in the assay on HCT-116, in the assay with HOP-92, with IGROV-1, with LOX IMVI and with MOLT-4 was > 100 µM (inactive) each time. Besides, the GI50 with NCI-H23, in the assay with NCI-H460, in the assay on RPMI-8226, in the assay on SF-268, in the assay with SNB-19 and in the assay on SW-620 was > 100 µM (inactive) each time. The GI50 in the assay with U-251 and in the assay on UACC-257 was > 100 µM (inactive) in each case.
With `Cc1ccc(O)c(/N=N/c2ccc(S(=O)(=O)O)cc2)n1`, the GI50 in the assay on 786-0, with HCT-116, in the assay on HOP-92, with IGROV-1, with LOX IMVI and with MOLT-4 was > 100 µM (inactive) throughout. Moreover, the GI50 in the assay with NCI-H23, in the assay with NCI-H460, with RPMI-8226, in the assay on SF-268, in the assay on SW-620 and in the assay with U-251 was > 100 µM (inactive) in each case.
